{"source": "patent US8283364B2", "about": "“Compounds which have activity at M1 receptor and their uses in medicine” (Glaxo Group Limited, priority 2005, dated 2012)", "origin": "cited, not measured here", "key": {"[1]": {"system": "A10 and A9 dopamine cell firing", "conditions": "A10 versus A9"}, "[2]": {"system": "dopamine driven behaviours", "conditions": "amphetamine induced locomotion in rats, apomorphine induced climbing in mice, turning in 6-OH-DA lesioned rats, amphetamine-induced motor unrest in monkeys"}}, "data": [{"smiles": "CCCCCCOc1nsnc1C1=CCCN(C)C1", "note": "[xanomeline]", "values": [{"measurement": "effect on dopamine cell firing", "setting": "[1]", "result": "inhibit A10, but not A9, dopamine cell firing"}, {"measurement": "effect on dopamine driven behaviours", "setting": "[2]", "result": "reverses a number of dopamine driven behaviours"}, {"measurement": "effect on psychotic symptoms (suspiciousness, hallucinations, delusions)", "setting": "psychotic symptoms; Alzheimer's patients", "result": "reduce psychotic symptoms"}, {"measurement": "side effects", "setting": "psychotic symptoms; ascribed to relatively non-selective nature of the compound", "result": "dose-limiting peripheral cholinergic side effects"}]}]}
